ChEMBL document CHEMBL1212698, “A forward chemical genetic screen reveals an inhibitor of the Mre11-Rad50-Nbs1 complex” (Nat Chem Biol, 2008)
The source made the active and inactive calls. The rule behind the calls is not given here.

What was measured:
[1] = species on record: Xenopus laevis; assay: (§1) Inhibition of DNA double strand break-induced ataxia telangiectasia mutated activation in Xenopus laevis extract assessed as inhibition of H2AX phosphorylation
[2] = species on record: Xenopus laevis; assay: Inhibition of DNA double strand break-induced Mre11/Rad50/Nbs1-dependent ATM autophosphorylation at Ser1981
[3] = species on record: Homo sapiens; assay: Inhibition of human Mre11/Rad50/Nbs1-dependent DNA tethering assessed as Rad50-associated adenylate kinase activity at 0.05 to 0.8 mM
[4] = molecular target: T1, Double-strand break repair protein MRE11 (Homo sapiens) (UniProt P49959); assay: Inhibition of human Mre11 nuclease activity at 100 uM
T1 sequence (whole entry): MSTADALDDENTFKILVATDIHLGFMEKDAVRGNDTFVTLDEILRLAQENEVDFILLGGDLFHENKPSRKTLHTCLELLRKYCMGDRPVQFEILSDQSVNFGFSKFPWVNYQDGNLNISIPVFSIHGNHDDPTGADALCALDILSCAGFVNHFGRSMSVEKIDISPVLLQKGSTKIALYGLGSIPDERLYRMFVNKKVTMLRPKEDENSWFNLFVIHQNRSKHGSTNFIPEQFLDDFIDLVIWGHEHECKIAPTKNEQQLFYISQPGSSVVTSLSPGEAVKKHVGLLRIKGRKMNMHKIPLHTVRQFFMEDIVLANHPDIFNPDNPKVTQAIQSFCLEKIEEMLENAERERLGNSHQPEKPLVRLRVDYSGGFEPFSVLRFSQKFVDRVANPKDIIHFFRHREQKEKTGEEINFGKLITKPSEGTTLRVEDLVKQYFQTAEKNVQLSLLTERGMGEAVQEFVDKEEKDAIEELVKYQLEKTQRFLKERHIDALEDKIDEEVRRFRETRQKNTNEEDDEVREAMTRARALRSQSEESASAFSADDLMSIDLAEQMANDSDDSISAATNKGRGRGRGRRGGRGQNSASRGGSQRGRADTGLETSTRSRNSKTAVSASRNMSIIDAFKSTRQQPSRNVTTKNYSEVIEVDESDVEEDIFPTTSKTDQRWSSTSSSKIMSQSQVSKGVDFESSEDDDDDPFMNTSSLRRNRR

[5] = species on record: Xenopus laevis; assay: Inhibition of ataxia telangiectasia mutated binding to streptavidin-bound biotinylated DNA in Xenopus laevis extract up to 1 mM
[6] = test system: Nucleic Acid; assay: Inhibition of DNA tethering in Xenopus laevis extract at 10 uM; format: nucleic-acid assay
[7] = test system: HEK293; assay: Cytotoxicity against human HEK293 cells at 50 uM after 24 hrs; format: cell-based; details: hek293, 24 h
[8] = species on record: Xenopus laevis; assay: Stimulation of Mre11/Rad50/Nbs1-dependent DNA tethering in Xenopus laevis extract at 100 uM
[9] = species on record: Xenopus laevis; assay: Inhibition of ataxia telangiectasia mutated-dependent Nbs1 phosphorylation in Xenopus laevis extract assessed as electrophoretic mobility by Western blot analysis
[10] = Cell cycle arrest in human TOSA4 cells assessed as accumulation at G2 phase at 100 uM after 24 hrs by FACS analysis; format: functional, cell-based
[11] = as §1
[12] = Cell cycle arrest in human TOSA4 cells assessed as accumulation at G2 phase at 50 uM after 24 hrs by FACS analysis; format: functional, cell-based
[13] = Inhibition of dimeric recombinant ataxia telangiectasia mutated activation in Xenopus laevis extract in presence of DNA, Mre11/Rad50/Nbs1
[14] = species on record: Xenopus laevis; assay: Inhibition of ataxia telangiectasia mutated-dependent Chk2 phosphorylation in Xenopus laevis extract assessed as electrophoretic mobility by Western blot analysis
[15] = species on record: Xenopus laevis; assay: Inhibition of Mer11 binding to streptavidin-bound biotinylated DNA in Xenopus laevis extract up to 1 mM
[16] = species on record: Xenopus laevis; assay: Inhibition of monomeric ataxia telangiectasia mutated catalytic activity at 50 uM
[17] = test system: HEK293; assay: Cytotoxicity against human HEK293 cells at 25 uM after 24 hrs; format: cell-based; details: hek293, 24 h
[18] = molecular target: T1, Double-strand break repair protein MRE11 (Homo sapiens); assay: Inhibition of human Mre11 ExoIII nuclease activity at 100 uM
[19] = test system: TOSA4; assay: Inhibition of gene conversion in human TOSA4 cells transfected with I-Sec1 expressing plasmid assessed as decrease in GFP-positive cells at 25 uM after 24 hrs by gene conversion assay; format: functional, cell-based
[20] = species on record: Xenopus laevis; assay: Induction of FLAG-tagged Mre11/Rad50/Nbs1 dissociation in Xenopus laevis extract at 100 uM
[21] = test system: U2OS; assay: Cell cycle arrest in human U2OS cells assessed as accumulation at G2 phase at 100 uM after 24 hrs by FACS analysis; format: functional, cell-based
[22] = test system: U2OS; assay: Inhibition of 10 Gy irradiation-induced G2/M check point in human U2OS cells using G2 synchronized cells at 25 uM after 24 hrs by FACS analysis; format: functional, cell-based

O=c1cc(-c2ccccc2)[nH]c(=S)[nH]1
inhibition [1]: inactive

N=C1NC(=O)/C(=C/c2ccc(O)cc2)S1 [MIRIN]
inhibition [2]: Active | Activity [3]: inactive | inhibition [4]: Active | inhibition [5]: inactive | inhibition [6]: inactive | Activity [7]: Non-toxic | Activity [8]: Active | inhibition [9]: Active | Activity [10]: Active | IC50 [11]: 66 µM | Activity [12]: Active | IC50 [13]: 12 µM | inhibition [14]: Active | inhibition [15]: inactive | inhibition [16]: inactive | Activity [17]: Non-toxic | inhibition [18]: inactive | inhibition [19]: Active | Activity [20]: inactive | Activity [21]: Active | inhibition [22]: Active
